The IC50 is the concentration needed to halve the response being measured. One may read the EC50 as the concentration at which the effect is half-maximal. As usually defined, the AC50 is the concentration giving half of the maximal activity seen.

Molecules are shown by their SMILES. Active and inactive are the calls of the source. Where only a bound is given, the exact number is not on record here.

IC50, EC50 and AC50 data for ten molecules are collected here from ChEMBL document CHEMBL1201862, “PubChem BioAssay data set” (2004).

One experiment addresses T1, Bcl-2-like protein 10 (Homo sapiens, UniProt Q9HD36).
T1 sequence (Q9HD36 whole entry): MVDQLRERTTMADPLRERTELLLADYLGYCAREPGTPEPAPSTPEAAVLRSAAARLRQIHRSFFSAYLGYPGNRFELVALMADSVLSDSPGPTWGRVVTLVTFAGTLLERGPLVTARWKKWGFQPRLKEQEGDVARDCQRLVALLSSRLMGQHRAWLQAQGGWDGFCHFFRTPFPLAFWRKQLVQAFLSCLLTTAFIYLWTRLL
Briefly: Bcl-B/TR3 peptide binding disruption – biochemical, fluorescence polarization, FITC-TR3 peptide, selectivity assay for Bfl-1 inhibitor project, primary screen (AID 748).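 Note: fluorescence polarization from a fluorescein-labelled TR3 peptide binding purified Bcl-B.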 For orientation: In fluorescence polarisation assays a small probe gives low polarisation when free and higher when bound to something large.

Another experiment has as its system H9c2. The experiment can be described thus: cells. The settings on record: Rattus norvegicus, H9c2, Myocardium. The class given is functional, cell-based.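 Note: confirmatory concentration-response retest of ultra-high-throughput screening hits for modulation of myocardial damage; cell death induced by hydrogen peroxide oxidative stress; compound pretreatment for 60 min then peroxide exposure for 2 h; potency is for protecting the cells against peroxide damage rather than for killing them.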
The next experiment has as its target Nonstructural protein 1 (Influenza A virus, UniProt Q194T2). It is filed as functional, Influenza A virus (A/California/07/2009(H1N1)).
The target in experiment [1] is T2, RNA-binding protein pos-1 (Caenorhabditis elegans, UniProt G5EF15).
T2 sequence (G5EF15 whole entry): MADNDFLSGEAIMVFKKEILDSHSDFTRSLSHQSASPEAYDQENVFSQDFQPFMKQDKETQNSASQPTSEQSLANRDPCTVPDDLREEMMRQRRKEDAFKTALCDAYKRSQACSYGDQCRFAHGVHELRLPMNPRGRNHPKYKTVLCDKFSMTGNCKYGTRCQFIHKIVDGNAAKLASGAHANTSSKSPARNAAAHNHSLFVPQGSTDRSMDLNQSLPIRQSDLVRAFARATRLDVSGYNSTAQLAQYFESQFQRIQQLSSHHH
Briefly: disruptors of C. elegans POS-1 RNA interaction – biochemical, fluorescence polarization, dose response (AID 1964).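 Note: purified POS-1 fused to maltose binding protein made in E. coli; potency of compounds blocking POS-1 binding to fluorescent RNA.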

Experiment [2] has as its target Glucose-6-phosphate 1-dehydrogenase (Homo sapiens, UniProt P11413). The experiment can be described thus: inhibition of Homo sapiens G6PD, dose series – biochemical, fluorescence, selectivity assay for P. falciparum G6PD inhibitor project, dose response (AID 504792). The class given is functional.
In experiment [3] the target is T3, Zinc finger protein mex-5 (Caenorhabditis elegans, UniProt Q9XUB2).
T3 sequence (Q9XUB2 whole entry): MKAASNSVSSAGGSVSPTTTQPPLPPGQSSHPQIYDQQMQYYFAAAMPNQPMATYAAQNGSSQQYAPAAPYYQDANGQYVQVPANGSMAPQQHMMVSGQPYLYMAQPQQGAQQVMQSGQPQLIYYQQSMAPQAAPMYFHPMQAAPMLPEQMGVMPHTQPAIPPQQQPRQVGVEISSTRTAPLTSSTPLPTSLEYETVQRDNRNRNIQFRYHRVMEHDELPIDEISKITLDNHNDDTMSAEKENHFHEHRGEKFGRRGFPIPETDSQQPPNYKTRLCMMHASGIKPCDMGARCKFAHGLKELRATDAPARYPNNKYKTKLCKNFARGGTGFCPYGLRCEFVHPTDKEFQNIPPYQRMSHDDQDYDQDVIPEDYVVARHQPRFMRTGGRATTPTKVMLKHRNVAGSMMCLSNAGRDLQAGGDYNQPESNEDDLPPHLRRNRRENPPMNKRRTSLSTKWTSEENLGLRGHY
The experiment can be described thus: potency of MEX-5 RNA-binding blockers – biochemical, C. elegans, fluorescence polarization, dose response (AID 1960).

The target of another experiment is T4, Hexokinase HKDC1 (Homo sapiens, UniProt Q2TB90).
T4 sequence (Q2TB90 whole entry): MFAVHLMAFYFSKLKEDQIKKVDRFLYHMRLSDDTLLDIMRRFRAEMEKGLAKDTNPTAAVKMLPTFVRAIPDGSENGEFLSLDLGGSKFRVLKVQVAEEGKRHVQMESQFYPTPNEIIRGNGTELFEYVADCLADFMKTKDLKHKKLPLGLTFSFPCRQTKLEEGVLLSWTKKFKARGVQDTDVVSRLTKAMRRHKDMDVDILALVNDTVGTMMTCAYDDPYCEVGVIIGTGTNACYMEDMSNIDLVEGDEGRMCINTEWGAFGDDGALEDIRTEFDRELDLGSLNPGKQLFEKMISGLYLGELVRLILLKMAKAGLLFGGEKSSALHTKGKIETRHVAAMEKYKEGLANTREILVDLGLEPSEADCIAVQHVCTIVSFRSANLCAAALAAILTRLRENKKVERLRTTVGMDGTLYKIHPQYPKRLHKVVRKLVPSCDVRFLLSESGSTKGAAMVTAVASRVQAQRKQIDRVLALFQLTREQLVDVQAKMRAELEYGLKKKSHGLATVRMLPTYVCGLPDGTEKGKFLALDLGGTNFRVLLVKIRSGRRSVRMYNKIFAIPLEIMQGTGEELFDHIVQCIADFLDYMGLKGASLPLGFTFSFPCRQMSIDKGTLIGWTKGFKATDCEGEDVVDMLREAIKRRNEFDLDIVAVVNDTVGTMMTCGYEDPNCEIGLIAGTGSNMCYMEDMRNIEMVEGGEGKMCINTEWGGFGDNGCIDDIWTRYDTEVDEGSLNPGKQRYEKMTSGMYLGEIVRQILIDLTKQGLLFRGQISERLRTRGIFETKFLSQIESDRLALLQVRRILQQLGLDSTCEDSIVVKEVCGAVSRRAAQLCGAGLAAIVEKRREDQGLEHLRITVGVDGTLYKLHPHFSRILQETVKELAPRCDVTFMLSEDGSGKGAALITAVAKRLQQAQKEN
Briefly: inhibition of HKDC1 glucose phosphorylation – biochemical, W721R variant, dose response (AID 504729). It is filed as functional.

Experiment [4] deals with T5, Apoptotic protease-activating factor 1 (Homo sapiens, UniProt O14727).
T5 sequence (O14727 whole entry): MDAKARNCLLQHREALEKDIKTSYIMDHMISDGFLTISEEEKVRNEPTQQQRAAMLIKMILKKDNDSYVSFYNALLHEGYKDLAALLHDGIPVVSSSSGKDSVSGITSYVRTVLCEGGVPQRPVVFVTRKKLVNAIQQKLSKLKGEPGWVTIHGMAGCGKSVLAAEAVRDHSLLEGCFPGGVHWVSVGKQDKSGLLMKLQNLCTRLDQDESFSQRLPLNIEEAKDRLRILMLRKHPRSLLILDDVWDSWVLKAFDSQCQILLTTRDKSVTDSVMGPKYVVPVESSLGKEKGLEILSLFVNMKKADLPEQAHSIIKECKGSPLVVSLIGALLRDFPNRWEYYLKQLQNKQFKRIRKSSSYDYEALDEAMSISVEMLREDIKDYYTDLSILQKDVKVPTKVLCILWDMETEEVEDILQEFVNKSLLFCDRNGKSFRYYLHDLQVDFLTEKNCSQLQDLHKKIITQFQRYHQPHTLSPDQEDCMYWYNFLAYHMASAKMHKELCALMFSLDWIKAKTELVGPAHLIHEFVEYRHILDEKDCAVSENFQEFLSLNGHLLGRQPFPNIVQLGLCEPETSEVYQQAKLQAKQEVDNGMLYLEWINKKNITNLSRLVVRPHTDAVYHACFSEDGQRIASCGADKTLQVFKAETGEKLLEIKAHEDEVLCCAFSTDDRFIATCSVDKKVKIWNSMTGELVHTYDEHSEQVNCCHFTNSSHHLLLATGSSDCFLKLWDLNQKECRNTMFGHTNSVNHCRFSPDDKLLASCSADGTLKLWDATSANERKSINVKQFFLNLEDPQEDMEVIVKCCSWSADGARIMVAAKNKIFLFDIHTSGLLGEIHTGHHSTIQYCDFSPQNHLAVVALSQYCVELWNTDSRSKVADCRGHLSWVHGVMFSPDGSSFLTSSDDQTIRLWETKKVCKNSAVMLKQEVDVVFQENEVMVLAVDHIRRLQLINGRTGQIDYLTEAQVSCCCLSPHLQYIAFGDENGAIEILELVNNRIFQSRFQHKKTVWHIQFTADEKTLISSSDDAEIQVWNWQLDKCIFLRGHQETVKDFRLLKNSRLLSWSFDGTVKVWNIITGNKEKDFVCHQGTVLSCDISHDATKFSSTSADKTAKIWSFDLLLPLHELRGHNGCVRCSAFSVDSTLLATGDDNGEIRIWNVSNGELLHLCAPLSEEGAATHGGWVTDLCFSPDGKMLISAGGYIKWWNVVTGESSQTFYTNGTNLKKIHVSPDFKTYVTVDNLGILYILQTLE
It is filed as functional.

In experiment [5] the target is Eukaryotic translation initiation factor 4E (Mus musculus, UniProt P63073). Briefly: blockers of eIF4G binding by eIF4E – biochemical, TR-FRET, dose response (AID 855).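 Note: potency for disrupting eIF4E binding to eIF4GI seen as loss of FRET.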 It is filed as functional. On the technique in general: TR-FRET usually uses a lanthanide donor and a delayed reading to cut background.
Eukaryotic translation initiation factor 4E, sequence (P63073 whole entry): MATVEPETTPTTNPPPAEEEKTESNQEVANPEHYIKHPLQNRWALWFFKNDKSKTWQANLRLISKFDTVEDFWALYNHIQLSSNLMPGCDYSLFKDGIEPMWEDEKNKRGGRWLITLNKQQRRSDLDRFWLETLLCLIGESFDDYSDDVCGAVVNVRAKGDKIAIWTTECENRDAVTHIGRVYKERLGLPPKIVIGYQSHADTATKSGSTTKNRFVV
The target in the next experiment is T6, Streptokinase A (Streptococcus pyogenes serotype M1, UniProt P10520).
T6 sequence (P10520 whole entry): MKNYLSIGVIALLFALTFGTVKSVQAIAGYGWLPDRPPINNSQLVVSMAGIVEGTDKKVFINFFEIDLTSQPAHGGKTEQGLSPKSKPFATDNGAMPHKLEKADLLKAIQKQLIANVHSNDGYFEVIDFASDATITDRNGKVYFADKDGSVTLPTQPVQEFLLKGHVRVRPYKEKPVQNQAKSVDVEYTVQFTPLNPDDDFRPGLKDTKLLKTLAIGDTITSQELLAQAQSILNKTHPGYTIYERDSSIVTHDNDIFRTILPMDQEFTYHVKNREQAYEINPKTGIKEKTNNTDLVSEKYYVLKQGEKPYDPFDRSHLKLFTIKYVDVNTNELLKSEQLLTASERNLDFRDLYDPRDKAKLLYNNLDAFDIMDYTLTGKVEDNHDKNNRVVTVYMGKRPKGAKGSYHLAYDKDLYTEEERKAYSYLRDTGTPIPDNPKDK
The experiment can be described thus: viability-normalized secreted streptokinase activity reduction – plasminogen activation absorbance, OD405, dose response (AID 1914).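 Note: secreted streptokinase activity via plasminogen activation per viability signal from cell pellet.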 It is filed as functional, Streptococcus pyogenes M1 GAS.

Experiment [6] relates to Streptococcus sp. 'group A'. The experiment can be described thus: Streptococcus pyogenes SK(-)GAS viability under kanamycin – luminescence, BacTiterGlo, confirmation, counter-screen for streptokinase expression inhibitor project, dose response (AID 1900). The class given is functional, organism-based. (In general: The purpose of a counterscreen is to sort out artefacts and off-target activity.)

In experiment [7] the target is DNA dC->dU-editing enzyme APOBEC-3G (Homo sapiens, UniProt Q9HC16). Briefly: Dose Response confirmation of small molecule APOBEC3G DNA Deaminase Inhibitors via a fluorescence-based single-stranded DNA deaminase assay. [Related pubchem assays (depositor defined):AID493012, AID493028]. It is filed as functional.
DNA dC->dU-editing enzyme APOBEC-3G, sequence (Q9HC16 whole entry): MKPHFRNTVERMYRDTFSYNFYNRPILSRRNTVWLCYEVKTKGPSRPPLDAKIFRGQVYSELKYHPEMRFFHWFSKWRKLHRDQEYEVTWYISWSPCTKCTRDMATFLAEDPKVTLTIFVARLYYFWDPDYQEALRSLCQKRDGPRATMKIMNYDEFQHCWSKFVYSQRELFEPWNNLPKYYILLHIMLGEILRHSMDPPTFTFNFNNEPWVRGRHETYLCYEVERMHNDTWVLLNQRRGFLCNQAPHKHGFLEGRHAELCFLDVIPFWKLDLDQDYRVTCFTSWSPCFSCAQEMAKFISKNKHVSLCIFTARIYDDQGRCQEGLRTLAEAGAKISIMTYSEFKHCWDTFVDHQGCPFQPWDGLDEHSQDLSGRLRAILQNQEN
A further experiment relates to Streptococcus. The experiment can be described thus: GAS UMAA2166 growth inhibition – luminescence, BacTiterGlo, counter-screen for streptokinase expression inhibitor project, dose response (AID 1915).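 Note: potency for reduction of bacterial viability or growth.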 The class given is functional, organism-based.
In experiment [8] the target is DNA dC->dU-editing enzyme APOBEC-3A (Homo sapiens, UniProt P31941). The experiment can be described thus: A3A deaminase inhibition for selectivity – biochemical, dose response (AID 504722). It is filed as functional.
DNA dC->dU-editing enzyme APOBEC-3A, sequence (P31941 whole entry): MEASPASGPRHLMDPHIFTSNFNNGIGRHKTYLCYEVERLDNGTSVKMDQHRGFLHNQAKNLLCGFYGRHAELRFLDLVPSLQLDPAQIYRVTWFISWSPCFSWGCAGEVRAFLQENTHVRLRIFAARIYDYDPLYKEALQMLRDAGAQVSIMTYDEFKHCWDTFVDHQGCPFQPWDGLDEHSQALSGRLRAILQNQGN
In experiment [9] the target is T7, Ubiquitin-conjugating enzyme E2 N (Homo sapiens, UniProt P61088).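 Note: Dose-response confirmation in a TR-FRET assay detecting UBC13-driven polyubiquitin chain formation, inhibition measured.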
T7 sequence (P61088 whole entry): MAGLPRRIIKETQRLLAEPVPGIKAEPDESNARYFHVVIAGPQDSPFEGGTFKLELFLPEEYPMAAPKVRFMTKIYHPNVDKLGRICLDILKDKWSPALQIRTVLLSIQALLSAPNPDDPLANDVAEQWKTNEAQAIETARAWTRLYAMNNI
The class given is functional.

The target in experiment [10] is FAD-linked sulfhydryl oxidase ALR (Homo sapiens, UniProt P55789). Briefly: ALR-catalysed DTT oxidation blockers – biochemical, H2O2 detection, luminescence, cherry-pick, dose response (AID 493248).
FAD-linked sulfhydryl oxidase ALR, sequence (P55789 whole entry): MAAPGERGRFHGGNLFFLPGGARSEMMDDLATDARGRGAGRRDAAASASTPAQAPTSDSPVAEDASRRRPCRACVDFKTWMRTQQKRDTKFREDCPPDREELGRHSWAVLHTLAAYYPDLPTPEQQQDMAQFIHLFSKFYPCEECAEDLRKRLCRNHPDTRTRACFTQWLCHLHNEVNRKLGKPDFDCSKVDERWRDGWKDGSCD
In the next experiment the target is Large T antigen (Simian virus 40, UniProt P03070). The class given is functional, Betapolyomavirus macacae.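 Note: Confirmatory-stage PubChem screen for compounds that inhibit SV40 T antigen.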
Large T antigen, sequence (P03070 whole entry): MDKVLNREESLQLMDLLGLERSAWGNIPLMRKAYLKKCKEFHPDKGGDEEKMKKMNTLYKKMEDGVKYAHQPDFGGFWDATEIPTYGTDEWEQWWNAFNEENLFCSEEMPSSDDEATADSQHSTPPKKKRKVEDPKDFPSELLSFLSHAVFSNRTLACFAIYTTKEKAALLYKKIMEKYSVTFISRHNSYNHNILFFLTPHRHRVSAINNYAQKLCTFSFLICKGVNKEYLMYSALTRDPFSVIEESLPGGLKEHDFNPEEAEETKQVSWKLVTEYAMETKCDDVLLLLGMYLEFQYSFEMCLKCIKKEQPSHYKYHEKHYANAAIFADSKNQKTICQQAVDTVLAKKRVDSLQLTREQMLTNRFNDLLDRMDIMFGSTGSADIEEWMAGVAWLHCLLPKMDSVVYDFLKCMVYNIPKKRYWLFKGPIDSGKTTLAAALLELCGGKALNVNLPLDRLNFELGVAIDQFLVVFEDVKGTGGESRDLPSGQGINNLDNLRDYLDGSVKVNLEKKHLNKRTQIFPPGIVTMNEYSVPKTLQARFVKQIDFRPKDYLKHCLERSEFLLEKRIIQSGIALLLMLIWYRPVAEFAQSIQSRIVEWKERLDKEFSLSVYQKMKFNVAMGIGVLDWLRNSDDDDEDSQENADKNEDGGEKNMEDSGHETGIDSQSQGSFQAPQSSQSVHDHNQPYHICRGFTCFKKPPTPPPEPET

Glucose-6-phosphate 1-dehydrogenase, sequence (P11413 whole entry): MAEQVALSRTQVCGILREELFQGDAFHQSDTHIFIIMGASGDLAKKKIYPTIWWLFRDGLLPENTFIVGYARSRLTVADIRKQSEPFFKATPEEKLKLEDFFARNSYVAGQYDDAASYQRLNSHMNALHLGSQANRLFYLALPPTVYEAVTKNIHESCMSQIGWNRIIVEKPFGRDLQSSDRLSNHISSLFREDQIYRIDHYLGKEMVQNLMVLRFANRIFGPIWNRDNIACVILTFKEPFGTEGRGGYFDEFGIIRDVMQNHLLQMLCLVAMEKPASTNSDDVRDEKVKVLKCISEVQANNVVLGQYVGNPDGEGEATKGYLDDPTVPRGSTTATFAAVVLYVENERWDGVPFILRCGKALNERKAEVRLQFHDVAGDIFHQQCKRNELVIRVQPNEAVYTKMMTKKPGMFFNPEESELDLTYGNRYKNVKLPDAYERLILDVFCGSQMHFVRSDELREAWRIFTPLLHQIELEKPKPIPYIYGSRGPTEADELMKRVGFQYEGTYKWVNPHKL
Nonstructural protein 1, sequence (Q194T2 whole entry): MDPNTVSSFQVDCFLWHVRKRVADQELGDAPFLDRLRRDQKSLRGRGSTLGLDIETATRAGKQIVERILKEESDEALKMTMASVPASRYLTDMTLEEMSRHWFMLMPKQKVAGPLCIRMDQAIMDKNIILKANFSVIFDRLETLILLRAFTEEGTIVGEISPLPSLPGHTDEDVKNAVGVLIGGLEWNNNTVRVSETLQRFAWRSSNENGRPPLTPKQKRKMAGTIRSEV

Consider `C[C@@H](C(=O)Nc1nc(-c2ccccn2)cs1)N1C(=O)C2CCCCC2C1=O` (stereo not given in full), for which the IC50 was 96 µM (inactive) at Bcl-2-like protein 10, 8.43 µM (active) in the experiment with H9c2 and 8.38 µM (active) on Nonstructural protein 1.
On to `C=CCN1C=C2C(=O)C(C)(OC(=O)CCC(=O)OC)C(=O)C(Br)=C2C=C1c1ccc(OC)cc1` (stereo not given), for which the values for the EC50 in [1] and in experiment [3] were 50.2 µM (active) and 42.8 µM (active), respectively. Moreover, the results for the IC50 (in experiment [2]; on Hexokinase HKDC1; in [4]) were 29.9 µM (inactive), 24.6 µM (inactive) and 32.6 µM (active), respectively.
With `COC(=O)c1ccc(CSc2nnc(S)s2)o1`, the values for the IC50 in experiment [5], in [7] and in [8] were > 64 µM (inactive), 5.99 µM (active) and > 100 µM (inactive), respectively. In addition, the figures for the EC50 (on Streptokinase A; in experiment [6]; with Streptococcus) were 5.61 µM (active), 5.69 µM (active) and 9.6 µM (active), respectively.
`Cc1ccccc1N1C(=O)c2sc3nc4c(c(=O)n3c2C1=O)CCC4`: the IC50 on Bcl-2-like protein 10 was 54.9 µM (inactive).
With `NC(=S)N=Nc1c(O)n(Cc2ccc(F)cc2)c2ccccc12`, the IC50 in experiment [9] was > 20 µM (inactive).
Regarding `Cc1cc(C(F)F)n2ncc(C(=O)NCCc3ccc(Cl)cc3)c2n1`, the half-inhibitory concentration (IC50) at Hexokinase HKDC1 is 12.7 µM (active).
For the molecule `CC(C)CC(C(=O)NC(C)(C)C)N(Cc1cccs1)C(=O)c1snc(C(N)=O)c1N` (stereo not given), the IC50 in experiment [9] is > 20 µM (inactive).
For `Sc1nnc(-c2ccccn2)n1/N=C/c1c(Cl)cccc1Cl`, the IC50 in experiment [7] was 4.67 µM (active); in [8], > 100 µM (inactive).
Consider `COc1cc(/C=C2/C(=O)NN(c3ccc(Cl)c(Cl)c3)C2=O)cc([N+](=O)[O-])c1O`, for which the AC50 in experiment [10] was 409 nM (active). Also, the IC50 at Large T antigen was 12.5 µM (active); at Hexokinase HKDC1, 32.5 µM (inactive).
On to `CC(C)Cn1c(S)nnc1-c1cccc(S(=O)(=O)N2CCOCC2)c1`, for which the figures for the IC50 in [7] and in experiment [8] were 5.37 µM (active) and > 100 µM (inactive), respectively.
